pIC50: −log10 of the molar value. Converted amounts (≈) assume the structure as drawn. Where two headings read alike, the source gives them in different places.
Assays:
[1] = test system: HIV-1(IIIB); test: Knock-out concentrations: breakthrough of HIV-1(IIIB)-induced cytopathicity in CEM cell cultures; type: cell-based; conditions: for activity at 0.1 µg/mL / activity at 0.5 µg/mL / activity at 2.5 µg/mL: Human immunodeficiency virus 1, IIIB, CCRF-CEM, read-out: HIV-1-induced cytopathicity in cell culture; for activity at 0.1 µg/mL: 0.1 μg/ml; for activity at 0.5 µg/mL: 0.5 μg/ml; for activity at 2.5 µg/mL: 2.5 μg/ml
Procedure: The culture medium consisted of RPMI 1640 containing 10% fetal bovine serum, 2 mM L-glutamine, and 0.075% NaHCO3. The multiplicity of the initial infection was ~1000 times the CCID50 (50% cell culture infective dose). Passages were performed every 3 to 4 days by adding 0.5 to 1.0 ml of the infected culture supernatant to 5 ml of a suspension containing 4×10^5 uninfected CEM cells per ml. Syncytium formation was used as a parameter of virus breakthrough in the cell cultures. In the drug combination experiments, the compounds were combined at the same initial concentrations as used for the two lowest concentrations in the single-drug experiments.
The drug concentrations were kept constant throughout the whole time period of the experiment (10 subcultivations or 35 days). Then the drugs were removed from the cell cultures, and the cells were further subcultured for at least 5 additional passages.

[2] = test system: HIV-1/TIBO R82913 (103-Asn); test: Sensitivity of mutant HIV-1 strain in CEM cell cultures; type: cell-based; conditions: Human immunodeficiency virus 1, CCRF-CEM; CEM cells, Table 1; read-out: 50% Effective Concentration
Summary of the method: (§1)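 CEM cells at 250,000 cells/ml were infected with HIV-1 at 100 CCID50 per ml, then mixed with serial dilutions of test compound. After 4 days at 37° C., cultures were scored for syncytium formation.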

[3] = test system: HIV-1/Pyr (181-Cys); test: as above; type: cell-based; conditions: Human immunodeficiency virus 1, CCRF-CEM; CEM cells, Table 1; read-out: 50% Effective Concentration
Summary of the method: as §1

[4] = test system: HIV-1/II(0.1) 100-Ile; test: as above; type: cell-based; conditions: Human immunodeficiency virus 1, CCRF-CEM; Table 5; read-out: EC50
Summary of the method: as §1

[5] = test system: HIV-1/V(0.5) 103-Asn; test: as above; type: cell-based; conditions: Human immunodeficiency virus 1, CCRF-CEM; Table 5; read-out: EC50
Summary of the method: as §1

[6] = test system: HIV-1/III(0.1) 103-Asn; test: as above; type: cell-based; conditions: Human immunodeficiency virus 1, CCRF-CEM; Table 5; read-out: EC50
Summary of the method: as §1

[7] = test system: HIV-1/Nev (106-Ala); test: as above; type: cell-based; conditions: Human immunodeficiency virus 1, CCRF-CEM; CEM cells, Table 1; read-out: 50% Effective Concentration
Summary of the method: as §1

[8] = test system: HIV-1/TIBO R82150 (100-Ile); test: as above; type: cell-based; conditions: Human immunodeficiency virus 1, CCRF-CEM; CEM cells, Table 1; read-out: 50% Effective Concentration
Summary of the method: as §1

[9] = test system: HIV-1/V(0.1) 101-Ile + 141-Glu; test: as above; type: cell-based; conditions: Human immunodeficiency virus 1, CCRF-CEM; Table 5; read-out: EC50
Summary of the method: as §1

[10] = test system: HIV-1/TSAO-m^3 T (138-Lys); test: as above; type: cell-based; conditions: Human immunodeficiency virus 1, CCRF-CEM; CEM cells, Table 1; read-out: 50% Effective Concentration
Summary of the method: as §1

[11] = test system: HIV-1/I(0.1) 103-Asn; test: as above; type: cell-based; conditions: Human immunodeficiency virus 1, CCRF-CEM; Table 5; read-out: EC50
Summary of the method: as §1

[12] = test system: HIV-1(IIIB) (WT); test: microbe, parasite or virus in culture; type: cell-based; conditions: Human immunodeficiency virus 1, IIIB, CCRF-CEM
Summary of the method: as §1

[13] = molecular target: HIV-1 RT (WT) (Human immunodeficiency virus type 1 group M subtype B, UniProt P03366); test: biochemical
Procedure: The reaction mixture (50 μl) contained 50 mM Tris.HCl, pH 7.8, 5 mM dithiothreitol, […] glutathione, 500 μM EDTA, 150 mM KCl, 5 mM MgCl2, 1.25 μg of bovine serum albumin, a fixed concentration of the labeled substrate [2,8-^3 H]dGTP (2.95 μM, 2 μCi), a fixed concentration of the template/primer poly(C).oligo(dG) (0.1 mM), 0.06% Triton X-100, 5 μl of inhibitor solution [containing various concentrations (5-fold dilutions) of the test compounds], and 5 μl of the RT preparation. The reaction mixtures were incubated at 37° C. for 30 min, at which time 100 μl of calf thymus DNA (150 μg/ml), 2 ml of Na4 P2 07 (0.1 M in 1M HCl), and 2 ml of trichloroacetic acid (10%, v/v) were added. The solutions were kept on ice for 30 min, after which the acid-insoluble material was washed and analyzed for radioactivity.
Compounds I, III, IV and V were evaluated for their inhibitory effect on recombinant HIV-1 RT.

[14] = 936 h, day 39 post infection, compound absent from day 35
[15] = 1008 h, day 42 post infection, compound absent from day 35
[16] = 1104 h, day 46 post infection, compound absent from day 35
[17] = 1176 h, day 49 post infection, compound absent from day 35
[18] = 1272 h, day 53 post infection, compound absent from day 35

O=C(OC1CCCCC1)c1cc(NC(=S)c2ccsc2)ccc1Cl [Compound V]
prevention of virus breakthrough, fold more efficient than BHAP [1]: at least 5 fold | prevention of virus breakthrough, fold more efficient than nevirapine [1]: ≥ 25 fold | activity at 0.1 µg/mL ([1]; 96 h, day 4 post infection): 0% | activity at 0.5 µg/mL ([1]; 96 h, day 4 post infection): 0% | activity at 2.5 µg/mL ([1]; 96 h, day 4 post infection): 0% | activity at 0.1 µg/mL ([1]; 192 h, day 8 post infection): 37.5% | activity at 0.5 µg/mL ([1]; 192 h, day 8 post infection): 0% | activity at 2.5 µg/mL ([1]; 192 h, day 8 post infection): 0% | activity at 0.1 µg/mL ([1]; 264 h, day 11 post infection): 50% | activity at 0.5 µg/mL ([1]; 264 h, day 11 post infection): 0% | activity at 2.5 µg/mL ([1]; 264 h, day 11 post infection): 0% | activity at 0.1 µg/mL ([1]; 336 h, day 14 post infection): 100% | activity at 0.5 µg/mL ([1]; 336 h, day 14 post infection): 18.5% | activity at 2.5 µg/mL ([1]; 336 h, day 14 post infection): 0% | activity at 0.1 µg/mL ([1]; 408 h, day 17 post infection): 100% | activity at 0.5 µg/mL ([1]; 408 h, day 17 post infection): 75% | activity at 2.5 µg/mL ([1]; 408 h, day 17 post infection): 0% | activity at 0.1 µg/mL ([1]; 504 h, day 21 post infection): 100% | activity at 0.5 µg/mL ([1]; 504 h, day 21 post infection): 100% | activity at 2.5 µg/mL ([1]; 504 h, day 21 post infection): 0% | activity at 0.1 µg/mL ([1]; 600 h, day 25 post infection): 100% | activity at 0.5 µg/mL ([1]; 600 h, day 25 post infection): 100% | activity at 2.5 µg/mL ([1]; 600 h, day 25 post infection): 0% | activity at 0.1 µg/mL ([1]; 672 h, day 28 post infection): 100% | activity at 0.5 µg/mL ([1]; 672 h, day 28 post infection): 100% | activity at 2.5 µg/mL ([1]; 672 h, day 28 post infection): 0% | activity at 0.1 µg/mL ([1]; 768 h, day 32 post infection): 100% | activity at 0.5 µg/mL ([1]; 768 h, day 32 post infection): 100% | activity at 2.5 µg/mL ([1]; 768 h, day 32 post infection): 0% | activity at 0.1 µg/mL ([1]; 840 h, day 35 post infection): 100% | activity at 0.5 µg/mL ([1]; 840 h, day 35 post infection): 100% | activity at 2.5 µg/mL ([1]; 840 h, day 35 post infection): 0% | activity at 0.1 µg/mL [1, 14]: 100% | activity at 0.5 µg/mL [1, 14]: 100% | activity at 2.5 µg/mL [1, 14]: 0% | activity at 0.1 µg/mL [1, 15]: 100% | activity at 0.5 µg/mL [1, 15]: 100% | activity at 2.5 µg/mL [1, 15]: 0% | activity at 0.1 µg/mL [1, 16]: 100% | activity at 0.5 µg/mL [1, 16]: 100% | activity at 2.5 µg/mL [1, 16]: 0% | activity at 0.1 µg/mL [1, 17]: 100% | activity at 0.5 µg/mL [1, 17]: 100% | activity at 2.5 µg/mL [1, 17]: 0% | activity at 0.1 µg/mL [1, 18]: 100% | activity at 0.5 µg/mL [1, 18]: 100% | activity at 2.5 µg/mL [1, 18]: 0% | concentration at which virus emerged (virus breakthrough) ([1]; tested at 0.1, 0.5 and 2.5 μg/ml, 35 days): 0.5 µg/mL | EC50 [2]: > 1 µg/mL | EC50 [3]: 0.077 µg/mL (≈ 0.203 µM) | EC50 [4]: ≥ 5 µg/mL | EC50 [5]: ≥ 5 µg/mL | EC50 [6]: 0.35 µg/mL (≈ 0.921 µM) | EC50 [7]: 0.073 µg/mL (≈ 0.192 µM) | EC50 [8]: 0.85 µg/mL (≈ 2.24 µM) | EC50 [9]: 0.3 µg/mL (≈ 0.79 µM) | EC50 [10]: 0.075 µg/mL (≈ 0.197 µM) | EC50 [11]: 1.75 µg/mL (≈ 4.61 µM) | EC50 ([12]; CEM cells, Table 1, read-out: 50% Effective Concentration): 0.03 µg/mL (≈ 0.079 µM) | EC50 ([12]; HIV-1 (III8), Table 5, read-out: EC50): 0.03 µg/mL (≈ 0.079 µM) | IC50 ([12]; range stated for Compounds I-V together, read-out: 50% inhibitory concentration, HIV-1(IIIB) replication in CEM cells): 0.004 to 0.05 µg/mL (≈ 0.0105 to 0.132 µM) | pIC50 ([13]; range stated for the compounds together, poly(C).oligo(dG), 2.95 μM [2,8-3H]dGTP, read-out: IC50 on recombinant HIV-1 RT): 6.69 to 7.32 | IC50 ([13]; substrate [2,8-3H]dGTP 2.95 μM, template poly(rC)oligo(dG), read-out: IC50, anti-HIV-1 RT (WT) activity (converted)): 203 nM
